Source: publication PMC10107299, “Neutralizing the Impact of the Virulence Factor LecA from Pseudomonas aeruginosa on Human Cells with New Glycomimetic Inhibitors” (Angewandte Chemie (International Ed. in English), 2023)
Values after ≈ are worked out from the molar mass of the structure shown. Values joined by “and” are separate entries in the source; they are usually repeats but may differ in a detail not shown here. Equal values may be shown once.

Legend:
[1] = molecular target: T1, LecA (Pseudomonas aeruginosa, UniProt Q05097); assay: Isothermal titration microcalorimetry (ITC) with LecA; assay type: binding; details: for -TΔS (supplement) / ΔS: ITC average ± s.d.; for Relative potency r.p. (ITC): compared to respective monovalent compound in each series; for ΔG, individual titration / ΔH, individual titration: LecA 35-182 µM, ligand 100 µM-1.5 mM as headed
T1 construct: made in house
T1 sequence (Q05097 whole entry): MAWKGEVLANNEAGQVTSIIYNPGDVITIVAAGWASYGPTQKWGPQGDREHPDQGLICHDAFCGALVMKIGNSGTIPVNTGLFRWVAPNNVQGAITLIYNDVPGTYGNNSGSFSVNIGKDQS
Source text: Due to the high solubility of the propanamides in the pyridine series and the sulfonated ligand L2, we determined binding thermodynamics with LecA using isothermal titration microcalorimetry (ITC, Figure 3, Figures S5–S9). […] In both cases, the enthalpy of binding increased approximately twofold (I2: ΔH=−23.9±1.2 kcal mol^−1, L2: ΔH=−19.5±1.3 kcal mol^−1) compared to their monovalent analogues (G2: ΔH=−11.0±0.2 kcal mol^−1, K2: ΔH=−10.3±0.1 kcal mol^−1), while the binding entropy was increased approximately threefold (G2: −TΔS=3.8±0.2 kcal mol^−1 vs. I2: −TΔS=13.7±1.3 kcal mol^−1, K2: −TΔS=3.2±0.2 kcal mol^−1 vs. L2: −TΔS=9.4±1.3 kcal mol^−1).
Figure 3 Direct binding of selected ligands to LecA by ITC (N=3). Titration of LecA (50 μM) with divalent sulfonated ligand L2 (250 μM) is depicted. Relative potencies (r.p.) were calculated compared to respective monovalent compound in each series and […]. TEXT PRINTED IN THE PICTURE: G2: ΔG [kcal/mol]: -7.2 ± 0.1; ΔH [kcal/mol]: -11.0 ± 0.2; -TΔS [kcal/mol]: 3.8 ± 0.2; N: 1.07 ± 0.06; Kd [nM]: 5 270 ± 30; r.p.: 1 | I2: ΔG [kcal/mol]: -10.2 ± 0.2; ΔH [kcal/mol]: -23.9 ± 1.2; -TΔS [kcal/mol]: 13.7 ± 1.3; N: 0.43 ± 0.01; Kd [nM]: 35.1 ± 12.5; r.p.: 150 | J2: ΔG [kcal/mol]: -9.7 ± 0.2; ΔH [kcal/mol]: -13.5 ± 0.4; -TΔS [kcal/mol]: 3.8 ± 0.5; N: 0.61 ± 0.06; Kd [nM]: 79.5 ± 32.8; r.p.: 66 | K2: ΔG [kcal/mol]: -7.1 ± 0.1; ΔH [kcal/mol]: -10.3 ± 0.1; -TΔS [kcal/mol]: 3.2 ± 0.2; N: 1.08 ± 0.13; Kd [nM]: 6 230 ± 440; r.p.: 1 | L2: ΔG [kcal/mol]: -10.1 ± 0.1; ΔH [kcal/mol]: -19.5 ± 1.3; -TΔS [kcal/mol]: 9.4 ± 1.3; N: 0.52 ± 0.06; Kd [nM]: 39.9 ± 3.6; r.p.: 156 […]
Expression and purification of LecA as well as competitive binding by fluorescence polarization was performed as described by Joachim et al..[9] The assay was performed in TBS/Ca2+ buffer (20 mM Tris, 137 mM NaCl, 2.6 mM KCl at pH 7.4 supplemented with 1 mM […]
(§1) CaCl2) in presence of 25% DMSO. […]
Isothermal titration calorimetry was performed on an iTC200 (Malvern Panalytical) and the data were analyzed using Microcal Origin software (Malvern Panalytical). LecA (50 - 180 […]
K2 and L2 and TBS/Ca2+ buffer supplemented with 5% DMSO for I2 and J2. Steep titration slopes achieved with the divalent ligands were the result of high amount of protein present and the high binding affinity of the ligand (high ‘value of c’).[10] However, LecA protein […]
low heat released upon binding. […]

[2] = molecular target: T1, LecA; assay: Competitive binding assay based on fluorescence polarization
Description: All synthesized galactosides were then evaluated for LecA inhibition using a competitive binding assay based on fluorescence polarization (Figure S1).[24]
Expression and purification of LecA as well as competitive binding by fluorescence polarization was performed as described by Joachim et al..[9] The assay was performed in TBS/Ca2+ buffer (20 mM Tris, 137 mM NaCl, 2.6 mM KCl at pH 7.4 supplemented with 1 mM CaCl2) in presence of 25% DMSO. Averages and standard deviations were calculated from at least three independent experiments. […]
RR OR In h i b i to r [µ M ]
R R In h i b i to r [µ M ] […]
R In h i b i to r [µ M ] 30 L2
30 F2 40 K2 In h i b i to r [µ M ] […]
In h i b i to r [µ M ] In h i b i to r [µ M ]
Figure S1: Evaluation of amide divalent LecA ligands in a competitive binding assay based on fluorescence […]
representative experiment is shown or each series. Averages and standard deviations from at least three independent titrations of triplicates each.
[…] Fluorescence polarization [mP] -1 0 1 2 3 0 1001010 Me-α-Gal pNO2-Ph-β-Gal 1000 Inhibitor [µM] Fluorescence polarization [mP])

[3] = molecular target: T1, LecA; assay: Direct binding to immobilized LecA by surface plasmon resonance (SPR); details: for kon: SPR single-cycle kinetics, 25 °C, N=3 (I1 N=1); for Relative potency r.p. (SPR): compared to respective monovalent compound in each series
Description: K d values were oscillating with the number of methylene units present in the linker, presumably linked to the zig‐zag geometry of the hydrocarbon chain.
Expression and purification of LecA as well as competitive binding by fluorescence polarization was performed as described by Joachim et al..[9] […]
Surface plasmon resonance experiments were performed on a BIACORE X100 instrument (GE Healthcare) at 25 °C as described by Zahorska et. al..[8] Averages and standard deviations were calculated from three independent experiments. […]
Figure S3: SPR of divalent LecA ligands from benzene series. Sensorgrams obtained from SPR single-cycle kinetics experiments. Five different concentrations of each compound (0, 10, 50, 100, 200 nM) were sequentially injected to obtain the experimental sensorgrams (blue lines), which were then fitted by a 1:1 model (orange) on BIACORE evaluation software. […]
Figure S4: SPR of divalent LecA ligands from pyridine and sulfonated series. Sensorgrams obtained from SPR single-cycle kinetics experiments. Five different concentrations of each compound (0, 10, 50, 100, 200 nM) were sequentially injected to obtain the experimental sensorgrams (blue lines), which were then fitted by a 1:1 model (orange) on BIACORE evaluation software.
(also on this page, place not known: Response (RU)0 Response (RU)0 Response (RU) Response (RU) Response (RU) Response (RU) 030060090012001500) […]

[4] = Kinetic solubility in TBS/Ca2+ buffer (HPLC-MS); assay type: physicochemical; details: aqueous buffer, kinetic from dmso stock; TBS/Ca2+ buffer pH 7.4, 1 % DMSO, N≥3; read-out: Solubility S (kinetic)
Description: Next, we quantified the solubility of at least one representative of each new class and of one parent bisacylhydrazone in aqueous media (Table 1). […]
TBS/Ca2+ buffer (20 mM Tris, 137 mM NaCl, 2.6 mM KCl at pH 7.4 supplemented with 1 mM […]
as §1
Kinetic solubility was determined on the analytical HPLC-MS using Compass QuantAnalysis quantification software (Bruker). Samples were prepared from DMSO stock solutions by dilution with TBS/Ca2+ buffer to 100 µM with 1% DMSO present. Samples were incubated on a shaker for 1 h at r.t., centrifuged (21380 g, 20 min), supernatants were diluted with DMSO (1:3), analyzed by HPLC-MS and fitted to the individual calibration curves.
Every experiment was repeated independently at least three times. […]

[5] = ITC average, 25 °C, TBS/Ca2+ buffer (5% DMSO for I2 and J2), N=3
[6] = Kd (ITC), ITC average, 25 °C, TBS/Ca2+ buffer (5% DMSO for I2 and J2), N=3
[7] = Kd, individual titration, single ITC titrations, three per ligand
[8] = single ITC titrations, three per ligand

SMILES | -TΔS (supplement) ([1]; 25 °C) [kcal/mol] | ΔS ([1]; 25 °C) [cal/mol/K] | N (stoichiometry) ([1]; ITC average, 25 °C, N=3) | -TΔS [1, 5] [kcal/mol] | ΔG [1, 5] [kcal/mol] | ΔH [1, 5] [kcal/mol] | Kd [1, 6] [nM] | Kd [1, 7] | Relative potency r.p. (ITC) [1] | N, individual titration [1, 8] | ΔS, individual titration [1, 8] | ΔG, individual titration [1, 8] | ΔH, individual titration [1, 8] | IC50 [2] [nM] | Kd [3] [nM] | koff [3] [s⁻¹] | kon [3] | Relative potency r.p. (SPR) [3] | solubility kinetic at 1 h [4] [µM]
O=C(CCc1ccc(O[C@@H]2O[C@H](CO)[C@H](O)[C@H](O)[C@H]2O)cc1)Nc1ccc(OCCCOc2ccc(NC(=O)CCc3ccc(O[C@@H]4O[C@H](CO)[C@H](O)[C@H](O)[C@H]4O)cc3)cn2)nc1 [Compound I2] | 13.7 ± 1.3 | -45.9 ± 4.5 | 0.43 ± 0.01 | 13.7 ± 1.3 | -10.2 ± 0.2 | -23.9 ± 1.2 | 35.1 ± 12.5 | 48.3 nM and 38.8 nM and 18.3 nM | 150 | 0.44 (2×) and 0.43 | -51.6 cal/mol/K and -40.6 cal/mol/K and -45.6 cal/mol/K | -10.0 kcal/mol and -10.1 kcal/mol and -10.6 kcal/mol | -23.6 kcal/mol and -25.5 kcal/mol and -22.7 kcal/mol | 3200 ± 1300 | 30.8 ± 1.5 | 0.00809 ± 0.00124 | 262 ± 28 x10^3/Ms | 97 | 63.3 ± 4.2 (≈ 55.8 µg/mL)
O=C(CCc1ccc(O[C@@H]2O[C@H](CO)[C@H](O)[C@H](O)[C@H]2O)cc1)Nc1ccc(OCCCCOc2ccc(NC(=O)CCc3ccc(O[C@@H]4O[C@H](CO)[C@H](O)[C@H](O)[C@H]4O)cc3)cn2)nc1 [Compound J2] | 3.8 ± 0.5 | -12.6 ± 1.8 | 0.61 ± 0.06 | 3.8 ± 0.5 | -9.7 ± 0.2 | -13.5 ± 0.4 | 79.5 ± 32.8 | 59.9 nM and 52.9 nM and 126 nM | 66 | 0.53 and 0.62 and 0.69 | -10.1 cal/mol/K and -13.8 cal/mol/K and -14.0 cal/mol/K | -9.9 kcal/mol (2×) and -9.4 kcal/mol | -14.0 kcal/mol and -12.9 kcal/mol and -13.5 kcal/mol | 3400 ± 1300 | 25.1 ± 1.9 | 0.0068 ± 0.00265 | 267 ± 84 x10^3/Ms | 118 | 13.7 ± 1.7 (≈ 12.3 µg/mL)
